Measured values: patent publication US20050244328A1 (priority 2002, published 2005)
Values joined by “and” are separate entries in the source; they are usually repeats but may differ in a detail not shown here. Equal entries are not always repeated. Where two headings read alike, the source gives them in different places.

Columns and labels:
[1] = test system: Saccharomyces diastaticus (yeast); details: cited from earlier work
[2] = test system: Penicillum expansum (mould); details: cited from earlier work
[3] = test system: Lactobacillus Brevis; details: contact time 300 s, cited from earlier work
[4] = test system: M. beryllina; test: Bioassay of ClO2 treated WWTP 2 effluent by Laboratory 4, silverside minnow; format: in vivo, Menidia beryllina; details: for Sample survival % of M. berylina: grabs Sep. 11, 2002 10:00, 15:30, 22:00, Sep. 12, 2002 10:00
Source text: (§1) With the success of the above bioassay series that began on Aug. 20, 2002, it was concluded that a third party test was needed to verify research data. Water grabs from the Anastasia Island Treatment Facility, taken on Aug. 28, 2002, were delivered to Laboratory 4, an independent bioassay laboratory. Additional testing of the water sent to Laboratory 4 labs was also forwarded to another contract lab to document the water quality during the sample periods for the bioassays. It should be noted here that the plant was operating under their normal operating conditions and accepting both landfill leachate as well as septic tank and portable toilet waste. These were however pumped into a storage tank and then trickled into the influent stream at the headworks.
(§2) The complete toxicological study as reference is included as attachment at the end of this study.
(§3) With the successful bioassay conducted by the Laboratory 4 labs, a second series of water samples was taken for the repeat bioassay. These samples were taken on Sep. 11, 2002 and forwarded to Laboratory 4 labs on Sep. 12, 2002 to conduct the bioassay. The results of this test for both the water quality toxicity and the bioassay are illustrated in the Tables 13, 14 and 15.
(§4) The complete toxicological results are provided at the end of this study as attachments.

[5] = test system: M. bahia; test: Bioassay of ClO2 treated WWTP 2 effluent by Laboratory 4, mysid shrimp; format: in vivo, Mysidopsis bahia; details: grabs Aug. 28, 2002 10:15, 16:00, 22:00, Aug. 29, 2002 09:30
Source text: as §1, §2, §3, §4

[6] = test system: Fecal Coliform; test: Fecal coliform counts in effluent, full-scale pilot and baseline at WWTP 2
[7] = test system: Mysidopsis bahia; test: 96-hour bioassay of ClO2 treated side stream effluent, Independent Bioassay Laboratory A, mysid shrimp; format: in vivo; details: end of 96-hour test period; ClO2 treated side stream effluent grabs Sep. 3, 2001 12:00, 18:00, 24:00, Sep. 4, 2001 06:00
Source text: Mysidopsis bahia (Mysids) and Menidia beryllina (Silversides) were subjected to ClO2 treated effluent in these tests. Adequate volumes of chemical were brought to the site to conduct a dosing of the side stream for a 24-hour period. During this period, 2 gallons of treated water were taken at 6-hour intervals, preserved on ice and shipped to an independent bioassay laboratory (designated Independent Bioassay Laboratory A).
Table 3(c) illustrates the survivability of the organisms at the 96-hour end-point in the test for each of the 4 samples taken (samples indicated by date and time each sample was taken.).

[8] = test system: Streptococcus; details: 1 ppm of ClO2; contact time 15 s; cited from earlier work
[9] = test system: Eschericia Coli; details: cited from earlier work
[10] = test system: Pediococcus Damnosus; details: cited from earlier work
[11] = test system: Pseudomonas aeruginosa; details: 1 ppm of ClO2; contact time 60 s; cited from earlier work

Chlorine dioxide [ClO2]
Inactivation in % ([1]; 0.15 ppm of ClO2, contact time 10 min): 99.9% | Inactivation in % ([1]; 0.5 ppm of ClO2, contact time 10 min): >99.999% | Inactivation in % ([1]; 1 ppm of ClO2, contact time 1 min): >99.999% | Inactivation in % ([2]; 0.5 ppm of ClO2, contact time 60 min): 99.99% | Inactivation in % ([2]; 2 ppm of ClO2, contact time 20 min): 99.999% | Inactivation in % ([3]; 0.15 ppm of ClO2): 99.9% | Inactivation in % ([3]; 1 ppm of ClO2): >99.999% | Sample survival % of M. berylina ([4]; 6.25 % Effluent): 100% | Sample survival % of M. berylina ([4]; 12.5 % Effluent): 100% | Sample survival % of M. berylina ([4]; 25 % Effluent): 100% and 95% | Sample survival % of M. berylina ([4]; 50 % Effluent): 95% and 100% | Sample survival % of M. berylina ([4]; 100 % Effluent): 95% and 100% | M. beryllina % survival ([4]; ClO2 treated effluent grabs Aug. 28, 2002 10:15, 16:00, 22:00, Aug. 29, 2002 09:30): 100% | Sample survival % of M. bahia ([5]; 6.25 % Effluent): 100% | Sample survival % of M. bahia ([5]; 12.5 % Effluent): 95% and 100% | Sample survival % of M. bahia ([5]; 25 % Effluent): 100% | Sample survival % of M. bahia ([5]; 50 % Effluent): 95% and 100% | Sample survival % of M. bahia ([5]; 100 % Effluent): 100% | FECAL ([6]; 13:00, 1.2 PPM DOSE RATE, sample point 1, 19 Aug. 2002): 6 | FC (fecal) ([6]; 15:00, 0.91 PPM DOSE, sample point 4, 19 Aug. 2002): 15 | FECAL ([6]; 15:45, 1.05 PPM DOSE RATE, sample point 4, 19 Aug. 2002): 26 | FECAL ([6]; WWTP 2 effluent 28-Aug, CL2SO2 at 8:30, CLO2 at 10:15): 45 | Percent Survival Mysid bahia [7]: 0% | Inactivation in % [8]: >99.999% | Inactivation in % ([9]; 0.15 ppm of ClO2, contact time 300 s): 99.9% | Inactivation in % ([9]; 0.25 ppm of ClO2, contact time 60 s): >99.999% | Inactivation in % ([10]; 0.15 ppm of ClO2, contact time 20 min): 99.99% | Inactivation in % ([10]; 0.3 ppm of ClO2, contact time 5 min): 99.99% | Inactivation in % ([10]; 1 ppm of ClO2, contact time 5 min): 99.999% | Inactivation in % [11]: >99.999%
